{"source": "patent US20230087994A1", "about": "“TARGETED BIFUNCTIONAL DEGRADERS” (YALE UNIVERSITY, priority 2019, published 2023)", "target": "T1, human MIF (Homo sapiens, UniProt P14174)", "T1 sequence (P14174 2-115 limits assumed)": "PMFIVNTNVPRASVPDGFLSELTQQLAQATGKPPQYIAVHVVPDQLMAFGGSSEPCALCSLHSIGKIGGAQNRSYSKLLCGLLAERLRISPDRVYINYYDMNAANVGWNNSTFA", "test": "Depletion of injected recombinant human MIF from serum in mice", "type": "in vivo", "design": "injected into mice", "conditions": "control molecules; FIG. 136", "procedure": "In vivo human MIF depletion experiments were undertaken to determine whether MIF-GN3 can mediate the depletion of injected recombinant human MIF from serum in mice. Mice were injected with five μg of the human MIF protein. In this experiment, one group of mice was also injected with a single 10 mpk dose of MIF-GN3 along with human MIF protein. It was observed that after four hours, the average level of human MIF in serum in the PBS-treated mice was 1.76 ng/mL (FIG. 134). In mice treated with 10 mpk MIF-GN3, however, the concentration of human MIF in serum was 0.68 ng/mL. One day after the initial injection, human MIF levels had reached background levels for both conditions. […] It was hypothesized that, due to the short half-life of human MIF in serum, investigating human MIF levels at earlier time points may be more informative.\nNext, an experiment was performed to determine whether MIF-GN3 could enhance MIF clearance at time points earlier than four hours. Mice were coinjected with recombinant human MIF and 10 mpk MIF-GN3 via either i.p. or i.v. routes. For the PBS control arms, human MIF was injected with PBS. It was observed that in the absence of MIF-GN3, there was a spike in huMIF levels in circulation after 30 minutes (FIG. 135). In the presence of MIF-GN3, however, levels of MIF protein remained low at 30 minutes and no spike in its concentration was observed. By two hours, the levels of human MIF in circulation decreased to background levels. […] In a further experiment, whether an inhibitor of the MIF protein (3w) is able to mediate the protein's depletion from serum was determined. A bifunctional molecule that mediates the depletion of α-DNP antibody from serum was also assayed as a negative control. Neither of these molecules was expected to mediate the formation of a ternary complex between human MIF protein and ASGPR.\nIn order to confirm that mice injected with one or ten mpk MIF-GN3 had received the injection, and that the observed stability of MIF concentrations in MIF-GN3 treated mice was not the result of injection error, 200 μg of α-DNP antibody was coinjected with the MIF protein in this experiment. […] An investigation of the ability of MIF-GN3 to mediate the depletion of endogenous mouse MIF in vivo was next undertaken. Mice were treated with either PBS or 10 mpk of MIF-GN3. […] One possible explanation for this finding is that MIF protein may be synthesized rapidly, and any increase in degradation mediated by MIF-GN3 may not be of a large enough magnitude to impact the protein's level in serum."}
{"smiles": "CC(=O)NC1C(OCCOCCOCCNC(=O)CCOCC(COCCC(=O)NCCOCCOCCOC2OC(CO)C(O)C(O)C2NC(C)=O)(COCCC(=O)NCCOCCOCCOC2OC(CO)C(O)C(O)C2NC(C)=O)NC(=O)CNC(=O)COCCOCCOCCNc2ccc([N+](=O)[O-])cc2[N+](=O)[O-])OC(CO)C(O)C1O", "note": "(stereo not shown) [DNP-GN3]", "values": [{"measurement": "human MIF concentration in serum compared to the PBS control", "result": "no significant decreases"}]}
